Reference: patent US4963573A, “[[[(3-pyridinyl)methylen]amino]oxy]alkanoic acids and esters” (Janssen Pharmaceutica N.V., priority 1989, dated 1990)
Where two headings read alike, the source gives them in different places.

Key:
[1] = test system: thromboxane A2 biosynthesis; test: Platelet malondialdehyde (MDA) production in vitro, human platelets in plasma, thrombin stimulated; type: cell-based; conditions: human platelet-rich plasma, thrombin 20 N.I.H. U/ml, 10 min pre-incubation at 37° C., 30 min reaction, 50% inhibition vs solvent
Method: (§1) MDA production by platelets in plasma, as an indicator of the thromboxane A2 biosynthesis, was evaluated spectrofluometrically. […] After 30 min at 37° C., the reaction was terminated by the addition of 1 ml of 10% (w/v) trichloroacetic acid. After isolation of the supernatant by centrifugation at 320 g for 20 min, the thiobarbituric acid reaction for MDA was performed using acid-hydrolyzed 1,1,3,3-tetramethoxypropane as a standard. The fluorescence of the samples at 553 nm after excitation at 510 nm was measured. The results were calculated as nM MDA/10^8 platelets/30 min and were expressed as a percentage inhibition produced by the compounds relative to the formation of MDA after thrombin stimulation in the solvent. For in vitro experiments, human platelets in plasma were used. Percentage inhibition was calculated versus the solvent value.

[2] = test system: thromboxane A2 biosynthesis; test: Platelet malondialdehyde (MDA) production in vivo, male Wistar rats; conditions: Rattus norvegicus, read-out: MDA production in vivo ED50-values
Method: as §1, with “After isolation of the supernatant by centrifugation at 320 g for 20 min, the thiobarbituric acid reaction for MDA was performed using acid-hydrolyzed 1,1,3,3-tetramethoxypropane as a standard.” left out
For in vivo experiments male Wistar rats were fasted overnight. 2 Hours before blood sampling they were treated with the test compound solution/suspension or the solvent. […] ED50 -values were determined by probit analysis.

[3] = male Wistar rats fasted overnight, treated 2 hours before blood sampling, 50% inhibition relative to MDA values with solvent, probit analysis

| SMILES | IC50 [1] | ED50 [2, 3] | IC50 ([1]; Homo sapiens, Platelet) | ED50 ([2]; 2 h) |
| --- | --- | --- | --- | --- |
| O=C(O)CCCCON=C(c1ccccc1)c1cccnc1 [Compound 4, (E+Z)-5-[[[phenyl(3-pyridinyl)methylen]amino]oxy]pentanoic acid] | 100 nM | 0.059 mg/kg |  |  |
| CCOC(=O)CCCCO/N=C(\c1ccccc1)c1cccnc1 [Compound 9] | < 100 nM |  |  |  |
| O=C(O)CCCCO/N=C(/c1cccnc1)c1cccc(C(F)(F)F)c1 [Compound 63, (E)-5-[[[(3-pyridinyl)[3-(trifluoromethyl)phenyl]methylen]amino]oxy]pentanoic acid] | 22 nM | 0.012 mg/kg |  |  |
| O=C(O)CCCCO/N=C(\c1ccccc1)c1cccnc1 [Compound 65] | 66 nM | 0.045 mg/kg |  |  |
| O=C(O)CCCCO/N=C(\Cc1ccccc1)c1cccnc1 [Compound 68] | 75 nM | 1 mg/kg |  |  |
| COc1ccc(C(=NOCCCCC(=O)O)c2cccnc2)cc1 [Compound 69] | 100 nM | 0.17 mg/kg |  |  |
| O=C(O)CCCCON=C(c1cccnc1)c1cccnc1 [Compound 70] | 180 nM | 1.2 mg/kg |  |  |
| Cc1ccc(C(=NOCCCCC(=O)O)c2cccnc2)cc1 [Compound 72] | 120 nM | 0.041 mg/kg |  |  |
| O=C(O)CCCCON=C(c1ccc(F)cc1)c1cccnc1 [Compound 73] | 300 nM | 0.2 mg/kg |  |  |
| O=C(O)CCCCON=C(c1cccnc1)c1cccc2ccccc12 [Compound 74] | 23 nM | 0.023 mg/kg |  |  |
| O=C(O)CCCCO/N=C(/c1cccnc1)c1cccs1 [Compound 76] | 120 nM | 0.068 mg/kg |  |  |
| O=C(O)CCCCON=C(c1cccnc1)c1ccc2ccccc2c1 [Compound 78] | 240 nM | 0.044 mg/kg |  |  |
| COc1ccc(C(=NOCCCCC(=O)O)c2cccnc2)cc1OC [Compound 82] | 110 nM | 0.056 mg/kg |  |  |
| O=C(O)CCCCO/N=C(/c1cccnc1)c1ccsc1 [Compound 84] | 110 nM | 0.17 mg/kg |  |  |
| CCCC/C(=N\OCCCCC(=O)O)c1cccnc1 [Compound 86] | 63 nM | > 0.16 mg/kg |  |  |
| COC(OC)c1ccccc1/C(=N\OCCCCC(=O)O)c1cccnc1 [Compound 87] | 24 nM | > 0.16 mg/kg |  |  |
| Cc1cccc(C(=NOCCCCC(=O)O)c2cccnc2)c1 [Compound 89] | 43 nM | 0.02 mg/kg |  |  |
| Cc1cccc(/C(=N\OCCCCC(=O)O)c2cccnc2)c1 [Compound 90, (E)-5-[[[(3-methylphenyl)(3-pyridinyl)methylen]amino]oxy]pentanoic acid] | 24 nM | 0.013 mg/kg |  |  |
| O=C(O)CCCCO/N=C(/c1cccnc1)c1cc(C(F)(F)F)cc(C(F)(F)F)c1 [Compound 92] | 33 nM | 0.01 mg/kg |  |  |
| O=C(O)CCCCO/N=C(/c1cccnc1)c1cccc2ccccc12 [Compound 93, (E)-5-[[[(1-naphthalenyl)(3-pyridinyl)methylen]amino]oxy]pentanoic acid] | 10 nM | 0.014 mg/kg |  |  |
| O=C(O)CCCCON=C(c1cccnc1)c1ccccc1C(F)(F)F [Compound 94] | 32 nM |  |  |  |
| O=Cc1cccc(C(=NOCCCCC(=O)O)c2cccnc2)c1 [Compound 116, (E+Z)-5-[[[(3-formylphenyl)(3-pyridinyl)methylen]amino]oxy]pentanoic acid] | 100 nM |  |  |  |
| O=C([O-])CCCCO/N=C(/c1cccnc1)c1cccc(C(F)(F)F)c1.[Na+] [Compound 121, sodium (E)-5-[[[(3-pyridinyl)[3-(trifluoromethyl)phenyl]methylen]amino]oxy]pentanoate] |  |  | 14 nM | 0.015 mg/kg |
| O=C([O-])CCCCO/N=C(\c1ccccc1)c1cccnc1.[Na+] [Compound 122, sodium (E)-5-[[[phenyl(3-pyridinyl)methylen]amino]oxy]pentanoate] |  |  | 81 nM | < 0.16 mg/kg |
| O=C(O)CCCCO/N=C(/c1cccnc1)c1cccc2ccccc12 [Compound 123, sodium (E)-5-[[[(1-naphthalenyl)(3-pyridinyl)methylen]amino]oxy]pentanoate] |  |  | 18 nM |  |
